The values that follow come from US6815195B2, “5-substituted hydantoin racemase, DNA coding for the racemase, and processes for producing optically active amino acids” (Ajinomoto Co. Inc., priority 2000, dated 2004).

“Also recorded” adds a separate entry of the source.

For data set [1], the system named is HRase. Description: Effect of various reagents such as enzyme inhibitors on HRase activity (residual activity). To be noted: for effect of reagent on HRase activity (in words): purified HRase pre-incubated with reagent; for Residual Activity (%): relative to activity without reagent (100%), pre-incubation 0° C. 30 min pH 8.0, reaction pH 8.0, 30° C., 30 min, concentration in reaction: NEM 5 mM, CuSO4 2.5 mM, IAA 10 mM, EDTA 10 mM, Methanol 10% (v/v). In kind it is biochemical, Microbacterium liquefaciens AJ3912. As for the experimental part: (§1) Specifically, a reaction solution containing 120 mg/dl L- or D-benzyl hydantoin (BH), 50 mM dibasic potassium phosphate buffer (KPB) (pH 8.0), 5 mM dithiothreitol (DTT) and an HRase enzyme solution was incubated at 37° C. for 30 minutes, and the reaction was stopped by adding a 9-fold excess volume of 1.1 mM CuSO4 and 11.1 mM H3PO4 solution. The precipitates were removed by centrifugation at 20,000 g×10 minutes, and the amount of racemized BH was quantitatively determined by HPLC to estimate the racemization activity. The enzyme activity causing racemization of 1 μmol BH per minute under these conditions was defined as 1 U of the enzyme activity.
1.5 μg/ml purified HRase was pre-incubated at 0° C. for 30 minutes at pH 8.0 with 25 mM DTT, 25 mM N-ethylmaleimide (NEM), 12.5 mM CuSO4, 50 mM monoiodoacetic acid (IAA), 50 mM EDTA or 50% (v/v) methanol. As the enzyme source, each of these mixtures was reacted at pH 8.0, at 30° C. for 30 minutes to measure the residual activity, and the susceptibility of the HRase to each inhibitor was determined. The concentration of each of the enzyme and the inhibitor during the reaction was about ⅕ relative to the concentration during the pre-incubation.
The residual activity was shown as relative activity to the activity (100%) in the absence of the reagent (see Table 2).

Data set [2] has as its system HRase. Description: Racemization of optically active 5-substituted hydantoin compounds other than BH (D-amino acid formation with AJ 11220 and HRase, TLC). The format is biochemical, Microbacterium liquefaciens AJ3912. To be noted: 1 g/dl substrate, 1.3 μg/ml purified HRase, 2 g/dl wet AJ 11220, 37° C., 22 hours, optical resolution TLC. The method, then:
The ability of the present HRase to catalyze racemization of optically active 5-substituted hydantoin compounds other than BH was examined. The formation of D-amino acid from L-5-substituted hydantoin by a combination of Pseudomonas sp. AJ 11220 and HRase was confirmed in the same manner as in Example 8.
1 g/dl 5-substituted hydantoin of various kinds, together with 1.3 μg/ml purified HRase, 0.1 M KPB (pH 8.0), 0.5 mM CoCl2 and 2 g/dl wet AJ 11220, was subjected to stationary reaction at 37° C. for 22 hours. Each hydantoin consisted of D- and L-isomers as the substrate, and it was confirmed that D-amino acid was formed from the D-isomer substrate in the absence of HRase, and also that D-amino acid was not formed from the L-isomer substrate in the absence of HRase, and then it was judged that when D-amino acid was formed from the L-isomer substrate in the presence of HRase, the substrate was recognized. The formation of D-amino acid was qualitatively estimated by development with optical resolution TLC (MERCK, HPTLC CHIR) with methanol:H2O:acetonitrile=1:1:4.

Data set [3] relates to HRase. Description: Racemization of BH by purified HRase (substrate recognition). In kind it is biochemical, Microbacterium liquefaciens AJ3912. Conditions: 0.3 mg/ml purified HRase, 37° C., pH 8.0. The method, then: (§2) A reaction solution containing 0.3 mg/ml purified HRase, 0.12 g/dl D- or L-BH, 50 mM KPB (pH 8.0) and 5 mM DTT was incubated at 37° C. and sampled with time to quantify the amount of BH by HPLC. As the control, the same experiment was performed in an experimental group not containing the enzyme, to quantify the spontaneous racemization of BH.

The nature of data set [4]: HRase activity measurement: racemization of BH quantified by HPLC (specific activity of purified HRase). In kind it is biochemical, Microbacterium liquefaciens AJ3912. As for the experimental part: Measurement of the HRase activity of the HRase of the present invention can be carried out by measuring a change in the optical rotation as the degree of racemization of the optically active D- or L-5-substituted hydantoin compound as the substrate or by high performance liquid chromatography (HPLC) using an optical resolution column.
as §1
The quantitative analysis of optically active BH by analysis in HPLC was conducted by use of Daicel Chemical CHIRALPAK WH 0.46 cmφ×25 cm. The analysis conditions are as follows:
as §2

Data set [5] can be described thus: Production of D-Phe from DL-BH or L-BH by a combination of Agrobacterium sp. AJ11220 and HRase. The format is biochemical. To be noted: reaction 30 hours. The method, then:
0.5 g/dl (26 mM) DL-BH or L-BH, together with 0.84 μg/ml purified HRase, 0.1 M KPB (pH 8.0), 0.5 mM CoCl2 and 2 g/dl wet AJ11220 microorganism, was subjected to stationary reaction at 30° C. Oxygen was previously removed from the reaction solution by replacing it by nitrogen. The reaction solution was sampled with time and analyzed by HPLC to quantify the formed D-Phe.

[6] abbreviates: calculated from initial reaction rate, 37° C., pH 8.0, 5 mM DTT.

Take `O=C(O)CI` [IAA, monoiodoacetic acid]: in the data set on HRase [1], the “effect of reagent on HRase activity (in words)” value (“effect of reagent” below) is listed as “strongly inhibited” and the “Residual Activity (%)” value was 0%. Besides, in the data set on HRase [1] (listed as iodoacetic acid), the “effect of reagent” value is on record as “significantly inhibited”.

As to `CC(C)C[C@@H]1NC(=O)NC1=O` [L-5-isobutyl hydantoin], the “racemization by HRase (D-amino acid formed from L-isomer substrate, qualitative)” value (shortened to “racemization by HRase”) in the data set with HRase [2] was “racemized”.

Turning to `CCN1C(=O)C=CC1=O` [NEM, N-ethylmaleimide], in the data set on HRase [1], the “effect of reagent” value was “significantly inhibited; also recorded: strongly inhibited” and the “Residual Activity (%)” value is 0%.

Turning to `O[C@H](CS)[C@H](O)CS` (racemic) [DTT, dithiothreitol], in the data set on HRase [1], the “effect of reagent” value is on record as “activated”.

In the case of `O=C1NC(=O)[C@H](Cc2ccccc2)N1` [L-BH, L-benzyl hydantoin], the “recognition as substrate by HRase” value with HRase [3] is on record as “recognized”.

As for `O=C1NC(=O)[C@H](Cc2ccc(O)cc2)N1` [L-5-(p-hydroxybenzyl) hydantoin], the “racemization by HRase” value in the data set on HRase [2] is on record as “racemized”.

Consider `O=C1NC(=O)[C@H](Cc2c[nH]c3ccccc23)N1` [L-5-indolyl methyl hydantoin], for which the “racemization by HRase” value in the data set with HRase [2] is reported as “racemized”.

With `O=C1NC(=O)[C@@H](Cc2ccccc2)N1` [D-BH, D-benzyl hydantoin], the “recognition as substrate by HRase” value with HRase [3] is reported as “recognized”.

Regarding `O=C(O)CN(CCN(CC(=O)O)CC(=O)O)CC(=O)O` [EDTA, ethylenediaminetetraacetic acid], in the data set on HRase [1], the “effect of reagent” value is given as “no significant inhibitory effect; also recorded: minimally inhibited” and the “Residual Activity (%)” value amounted to 86%.

As for `CO` [Methanol, methanol], in the data set with HRase [1], the “effect of reagent” value was “did not influence” and the “Residual Activity (%)” value is 99%.

Turning to `O=S(=O)([O-])[O-].[Cu+2]` [CuSO4], the figures for the “effect of reagent” value in the data set with HRase [1] (listed as Cu^2+) and in the data set with HRase [1] (listed as copper ion) were “significantly inhibited” and “strongly inhibited”, respectively. Also, the “Residual Activity (%)” value in the data set on HRase [1] is recorded as 0%.

B1: HRase: 5-substituted hydantoin racemase from Microbacterium liquefaciens AJ3912, amino acid sequence SEQ ID NO:2 (protein)
chain: MRIHVINPNSSVDLTDAVAEAARSVVSPGTTITAVNPSKGPTVIEGSYDEVLATYHLVEEVRRAEREDRPDAYVIACFGDPGLDAVRELTDRPVVGIAEAAIQMTSFVAASFSIVSILPRVRKHLHELVHRAGATDRLASLKLPDLGVLAFHEDEAAAFETLRRVAGEAVREDGAESIVLGCAGMAGFARQLSEELGVPVIDAVEAACRVAESLVALGYRTSKANTYQAPTEKQYL
As for B1, in data set [4] (after purification (Example 1), 1 U = racemization of 1 μmol BH per minute), the “specific activity of the purified HRase” value is recorded as 79 U/mg. Moreover, in data set [4] (setting [6]), the “specific activity of the purified HRase, formation of D-BH from L-BH” value is recorded as 100 U/mg and the “specific activity of the purified HRase, formation of L-BH from D-BH” value was 79 U/mg. Also, in data set [5] (HRase added (0.84 μg/ml), 26 mM DL-BH, 2 g/dl wet AJ11220, 30° C.), the “amount of D-Phe formed from DL-BH” value stood at 24.6 mM. Moreover, in data set [5] (HRase added (0.84 μg/ml), 26 mM L-BH, 2 g/dl wet AJ11220, 30° C.), the “amount of D-Phe formed from L-BH” value is given as 24.6 mM. In addition, the “molar yield of D-Phe from DL-BH” value in data set [5] (HRase added, 26 mM DL-BH) is given as 94%. In data set [5] (HRase added, 26 mM L-BH), the “molar yield of D-Phe from L-BH” value stood at 94%.
